Tested on: Staphylococcus aureus ATCC 25423
Assay: Disk diffusion assay
Assay type: cell-based
Details: ATCC25423, 12 μg PenG, read-out: inhibition zone diameter
Experimental: The PMAA grafted magnetic nanoparticles were used to non-covalently attach the beta-lactam antibiotic penicillin-G (PenG) and subsequently tested for activity against bacteria. Escherichia coli (Gram-negative) and Staphylococcus aureus (Gram-positive) were selected as the target bacteria. The disk diffusion assay of PenG-nanoparticle complex was conducted with a control group of free PenG of the same dose (12 μg PenG). […] Thus, PMAA grafted magnetic nanoparticles enhanced the bioactivity of penG against bacteria when the nanoparticles were physically bound with PenG. Without wishing to be bound by any particular theory, it is believed that the enhanced inhibition activity was due to the locally high concentrations of antibiotics physically attached to PMAA grafted magnetic nanoparticles, which overwhelms the resistance of bacterial strains. The magnetic properties also offer a valuable stimulus technique to direct the nanoparticles in complicated bacterial environments, such as biofilms, while free antibiotic are not able to access cells in the sticky extracellular polymeric substances (EPS) of biofilms.
Escherichia coli ATCC 25922 and Staphylococcus aureus ATCC 25423 were allowed to grow in 10 mL of tryptic soy broth (TSB) at 37° C. overnight to an optical density of 0.8 (OD600=0.8) and then diluted 10-fold. 0.1 mL of the diluted culture was used to inoculate an agar plate. […]

With `CC1(C)S[C@@H]2[C@H](NC(=O)Cc3ccccc3)C(=O)N2[C@H]1C(=O)O` [free PenG, penicillin-G] the zone of inhibition at 12 µg/disc was 18 mm.

Reference: patent US9504256B2, “Fabrication of magnetic nanoparticles” (University of South Carolina, priority 2013, dated 2016)
